Experimental data reported in US20220265667A1 (priority 2019, published 2022).
Read-outs that look alike come from different tables or passages of the source.

How the values were obtained:
[1] = test system: murine bone marrow-derived mast cells (BMMCs); test: In vitro release of Interleukin-6 (IL-6) from IgE-preloaded murine bone marrow-derived mast cells (ELISA); assay type: cell-based, mice; conditions: Mus musculus, BMMC, 3 h; read-out: percentage of inhibition of IL-6 release
Procedure: According to the technique established by Razin et al. (Proc. Natl. Acad. Sci. USA 1981, 78:2559-2561), bone marrow cells (1×10^6/ml) from 6 to 8 week old mice (129/Sv×C57BL/6) were cultured (37° C. and 5% CO2) as single cell suspensions in RPMI 1640 medium (Sigma-Aldrich, Munich, Germany) supplemented with 15% fetal calf serum (FCS), 1% X63Ag8-653-conditioned medium (Karasuyama and Melchers, Eur. J. Immunol. 1988, 18:97-104), 2 mM L-glutamine, 10 μM β-mercaptoethanol, 50 units/ml penicillin, and […] streptomycin. At weekly intervals, the non-adherent cells were reseeded at 5×10^5 cells/ml in fresh medium. After 4-6 weeks in culture, greater than 99% of the cells were KIT- and […] as assessed by fluorescence-activated cell sorting (FACS) using phycoerythrin-labeled anti-KIT antibodies (Pharmingen, Mississauga, Canada) and fluorescein isothiocyanate (FITC)-labelled hamster anti-mouse FcεRIα antibodies (eBioscience, Frankfurt, Germany), respectively. The resulting cells are called bone marrow-derived mast cells (BMMCs).
For degranulation studies, BMMCs were preloaded with 0.15 μg/ml IgE anti-DNP (dinitrophenyl; Sigma Aldrich, Munich, Germany) overnight at 37° C. The cells were then washed and resuspended in Tyrode's buffer (130 mM NaCl, 5 mM KCl, 1.4 mM CaCl2, 1 mM MgCl2, 5.6 mM glucose, and 0.1% bovine serum albumin (BSA) in 10 mM Hepes, pH 7.4).
Subsequently, the cells were left unstimulated (unst) or stimulated with 20 ng/ml Ag (dissolved in medium) for 3 h. Subsequently, the cells were pelleted by centrifugation and the resulting cell pellet was discarded. For the determination of the amount of degranulated IL-6, the respective supernatant obtained by centrifugation was subjected to an IL-6 ELISA according to the manufacturer's instructions (BD, Heidelberg, Germany). Experiments were performed in triplicate.

[2] = test system: human nasal tissue mast cells activated with SCF; test: Ex vivo SCF-induced tryptase release (degranulation) of human nasal tissue mast cells; assay type: cell-based; conditions: for Tryptase: with SCF; for inhibition at 1 µM / inhibition at 3 µM / inhibition at 10 µM / inhibition at 30 µM / inhibition at 60 µM / inhibition at 150 µM / inhibition at 300 µM / IC50: Homo sapiens, Mast cell; for inhibition at 1 µM / inhibition at 3 µM / inhibition at 10 µM / inhibition at 30 µM / inhibition at 60 µM / inhibition at 150 µM / inhibition at 300 µM: read-out: percentage inhibition of degranulation (tryptase); for IC50: read-out: IC50 ex vivo inhibition of tryptase degranulation; for HillSlope / LogIC50: SCF
From the text: Fresh human nasal mucosa was used (middle nasal turbinate), which was surgically removed as standard procedure during nose correction surgeries (septorhinoplasty with conchotomy). Only tissues from those patients who had not previously received medication in the form of cortisone preparations or antihistamines were used. The removed tissue was cleansed immediately after the surgical removal with Epilife Medium (Thermo Fisher Scientific, No. […]500), referred to as “medium” in terms of ex vivo experiments, a chemically defined, serum-free full medium for epithelial cells and keratinocytes. The tissue was then cut into 12 pieces of equal size, cleansed again in the medium, and the exact fresh weight of the cut tissue pieces was determined for later normalization and then stored overnight in cold medium. The weight of the tissue pieces varied between 10 and 20 mg.
After an one hour of pre-incubation with the respective compositions i) or ii), 0.4 μg/ml stem cell growth factor (SCF, Peprotech) was added to each well—except for one well serving as the negative control—in order to induce tryptase degranulation. […] Immediately after the removal of 250 μl supernatant, the volume in each well was increased to the original level and the original composition by adding 250 μl of the respective composition i), and ii).
For the determination of the amount of degranulated tryptase, the frozen supernatants were thawed at 22° C. and then subjected to a tryptase ELISA Kit from Boster Biological Technology Co., Ltd (No. EZ0898, Assay Range: 156-10000 pg/ml, Sensitivity: <15 pg/ml) according to manufacturer's instructions, and the ELISA measurements were performed with the Multiskan Go instrument from Thermo Scientific and the SkanIt Re 4.1 software.
The statistical analysis was conducted in two steps. In a first step, the raw measurement values were normalized to 10 mg tissue. In a second step, a correction factor was introduced for all time points of supernatant removal to compensate for the 250 μl supernatant taken for analysis at each time and the subsequent re-addition of medium incl. factors. The statistical calculations were performed with Microsoft Excel 2010.
For the analysis, a non-linear regression (variable slope—4-parametric) was used. The program setting “Dose-Response-Inhibition” was applied for an automatic calculation, readout and display of the IC50 values.

[3] = test system: patient with therapy-resistant systemic mastocytosis; test: Human in-vivo off-label clinical test, symptom intensity by visual analog score (VAS)
Procedure: The results of the clinical test were closely monitored, captured and documented together with patient. The patient is and diagnosed with systemic mastocytosis (WHO criteria, KIT816V positiv) with official diagnosis. […] The current daily treatment of the patient is: H1 antihistamine 3× daily, cromolyn 4×200 mg daily, PPI 110 mg daily, Vitamine C/Vitamine D upon need, Actonel, upon need decortin 40 to 60 mg.

## CCNC1=Nc2ccc(Cl)cc2C(C)(c2ccccc2)O1 (racemic) [Etifoxine, 6-Chloro-2-N-ethyl-4-methyl-4-phenyl-4H-3,1-benzoxazine-2-amine]
[1]
  inhibition at 3 µM: 20%
  inhibition at 10 µM: 48%
  inhibition at 30 µM: 92%
[2]; 1 μM Etifoxine, 120 min
  Tryptase: 12.1 pg/ml/10 mg tissue
[2]; 1 μM Etifoxine, 240 min
  Tryptase: 1113.7 pg/ml/10 mg tissue
[2]; 1 μM Etifoxine, 480 min
  Tryptase: 1791.7 pg/ml/10 mg tissue
[2]; 1 μM Etifoxine, 1440 min
  Tryptase: 5547.4 pg/ml/10 mg tissue
[2]; 3 μM Etifoxine, 120 min
  Tryptase: 38.7 pg/ml/10 mg tissue
[2]; 3 μM Etifoxine, 240 min
  Tryptase: 1030.3 pg/ml/10 mg tissue
[2]; 3 μM Etifoxine, 480 min
  Tryptase: 1789.0 pg/ml/10 mg tissue
[2]; 3 μM Etifoxine, 1440 min
  Tryptase: 5512.9 pg/ml/10 mg tissue
[2]; 10 μM Etifoxine, 120 min
  Tryptase: 71.9 pg/ml/10 mg tissue
[2]; 10 μM Etifoxine, 240 min
  Tryptase: 594.5 pg/ml/10 mg tissue
[2]; 10 μM Etifoxine, 480 min
  Tryptase: 1284.9 pg/ml/10 mg tissue
[2]; 10 μM Etifoxine, 1440 min
  Tryptase: 3185.9 pg/ml/10 mg tissue
[2]; 30 μM Etifoxine, 120 min
  Tryptase: 109.4 pg/ml/10 mg tissue
[2]; 30 μM Etifoxine, 240 min
  Tryptase: 449.9 pg/ml/10 mg tissue
[2]; 30 μM Etifoxine, 480 min
  Tryptase: 979.7 pg/ml/10 mg tissue
[2]; 30 μM Etifoxine, 1440 min
  Tryptase: 2400.2 pg/ml/10 mg tissue
[2]; 60 μM Etifoxine
  Tryptase: 1218.2 pg/ml/10 mg tissue
[2]; 60 μM Etifoxine, 120 min
  Tryptase: 152.7 pg/ml/10 mg tissue
[2]; 60 μM Etifoxine, 240 min
  Tryptase: 345.9 pg/ml/10 mg tissue
[2]; 60 μM Etifoxine, 480 min
  Tryptase: 689.7 pg/ml/10 mg tissue
[2]; 150 μM Etifoxine
  Tryptase: 1040.1 pg/ml/10 mg tissue
[2]; 150 μM Etifoxine, 120 min
  Tryptase: 163.3 pg/ml/10 mg tissue
[2]; 150 μM Etifoxine, 240 min
  Tryptase: 576.8 pg/ml/10 mg tissue
[2]; 150 μM Etifoxine, 480 min
  Tryptase: 1042.4 pg/ml/10 mg tissue
[2]; 300 μM Etifoxine, 120 min
  Tryptase: 71.9 pg/ml/10 mg tissue
[2]; 300 μM Etifoxine, 240 min
  Tryptase: 459.3 pg/ml/10 mg tissue
[2]; 300 μM Etifoxine, 480 min
  Tryptase: 991.8 pg/ml/10 mg tissue
[2]; 300 μM Etifoxine, 1440 min
  Tryptase: 559.4 pg/ml/10 mg tissue
[2]; 4 h
  inhibition at 1 µM: 0%
  inhibition at 3 µM: 0%
  inhibition at 10 µM: 15%
  inhibition at 30 µM: 56%
  inhibition at 60 µM: 85%
  inhibition at 150 µM: 21%
  inhibition at 300 µM: 53%
[2]; 8 h
  inhibition at 1 µM: 0%
  inhibition at 3 µM: 0%
  inhibition at 10 µM: 28%
  inhibition at 30 µM: 90%
  inhibition at 60 µM: 148%
  inhibition at 150 µM: 77%
  inhibition at 300 µM: 87%
[2]; 4 hours after SCF addition
  IC50: 6.12 µM
[2]; 8 hours after SCF addition
  IC50: 9.07 µM
[2]; Tryptase 4 h
  HillSlope: −2.791
  LogIC50: 0.7865
[2]; Tryptase 8 h
  HillSlope: −3.492
  LogIC50: 0.9578
[2]; summary statement, mast cells of human nasal pieces
  inhibition of SCF-triggered tryptase release (degranulation) achieved (complete): 100%
[3]; after 6 weeks treatment, VAS baseline value 8, scale 0-10
  total clinical symptom intensity score (VAS): 4
[3]; during the 6 week oral treatment, one patient
  side effects: No side effects occurred
[3]; one patient, oral 50 to 150 mg daily, over 6 weeks
  reduction of total clinical symptom intensity score: 50%
